We go through 29 compounds from patent publication US12565490B2, “Inhibitors of Receptor Interacting Protein Kinase I for the treatment of disease” (Board of Regents, The University of Texas System, priority 2020, dated 2026).

Some results are limits rather than exact numbers.

The subject of the assay is human monocytic cell line U937. In words: Human U937 cellular necroptosis assay. It is filed as cell-based. Particulars: U-937; U937 cells stimulated with 25 ng/mL human TNFalpha and 25 μM z-VAD-FMK; 22 hr; viability by Cell Titer-Glo 2.0; read-out: hU937 IC50. As for the experimental part:
Human U937 Cellular Necroptosis Assay
The human monocytic cell line U937 (CRL-1593.2) may be purchased from ATCC. The cells are routinely maintained in RPMI-1640 Medium (Gibco, Catalog #11875-093) supplemented with 10% heat inactivated fetal bovine serum (Gibco, Catalog #16140-071), 100 units/mL penicillin and 100 μg/mL streptomycin (Gibco, Catalog #15140-122), in a humidified incubator (37° C., 5% CO2). For the assay, cells are resuspended in RPMI-1640 phenol red free Media (Gibco, Catalog #11835-030) supplemented with 10% fetal bovine serum (Sigma, Catalog #F2442), 100 units/mL penicillin and 100 ug/mL streptomycin. Cells are stimulated with 25 ng/mL human TNFalpha (Cell Sciences, Catalog #CSI15659B) and 25 μM z-VAD-FMK (R&D Systems, Catalog #FMK001) followed by seeding 5000 cells per well in a volume of 40 μL to a white, CulturPlate-384 (Perkin Elmer, Catalog #6007680). Stock solutions of the test compounds are prepared in 100% DMSO (Sigma, Catalog #D2650) and serially diluted 1:3 using 100% DMSO. Compounds are additionally diluted 1:40 in assay medium, and 10 μL/well was transferred to the plate. Following the compound addition, the plate is incubated at 37° C. and 5% CO2 for 22 hr. After 22 hr, viability is assessed with the addition of 20 μL of Cell Titer-Glo 2.0 (Promega, Catalog #G9243). The tissue culture plate is shaken on an orbital shaker at 300 RPM for 15 minutes at room temperature in the dark. Luminescence is measured using a PerkinElmer Envision™ plate reader. IC50 values are calculated using a four-parameter logistic curve fit using Genedata Screener software. Compounds disclosed herein are expected to have activity in this assay.
In general terms: Cellular ATP, detected with luciferase, serves as a proxy for viable cell number.
Usually IC50 stands for the concentration that gives 50% inhibition. `CN1C(=O)[C@@H](NC(=O)c2ncc(Cl)c(C3COCCO3)n2)COc2cc(Cl)cnc21` (single isomer, unassigned) [Example 163b]: the IC50 stood at 87.9 nM.

`COc1cc2c(cn1)N(C)C(=O)[C@@H](NC(=O)c1ncc(C)c(-c3ccccc3)n1)CC2` (stereo in doubt) [Example 11, N-(7-methoxy-1-methyl-2-oxo-2,3,4,5-tetrahydro-1H-pyrido[3,4-b]azepin-3-yl)-5-methyl-4-phenylpyrimidine-2-carboxamide]: the IC50 was determined as 459 nM.

With `Cc1ccc(-c2nc(C(=O)N[C@H]3COc4cc(C#N)ccc4N(C)C3=O)ncc2C)cc1F` [Example 1, (S)—N-(8-cyano-5-methyl-4-oxo-2,3,4,5-tetrahydrobenzo[b][1,4]oxazepin-3-yl)-4-(3-fluoro-4-methylphenyl)-5-methylpyrimidine-2-carboxamide], the IC50 amounted to 12.4 nM.

On to `O=C(NC1CCc2ccccc2NC1=O)c1ncc(C2CC2)c(-c2ccccc2)n1` (centres unmarked) [Example 2, 5-cyclopropyl-N-(2-oxo-2,3,4,5-tetrahydro-1H-benzo[b]azepin-3-yl)-4-phenylpyrimidine-2-carboxamide], for which the IC50 worked out at 509 nM.

Consider `Cc1cnc(C(=O)NC2CCc3ccccc3NC2=O)nc1-c1ccccc1` (centres unmarked) [Example 3, 5-methyl-N-(2-oxo-2,3,4,5-tetrahydro-1H-benzo[b]azepin-3-yl)-4-phenylpyrimidine-2-carboxamide], for which the IC50 was 18.5 nM.

For the compound `O=C(NC1CCc2ccccc2NC1=O)c1nccc(-c2ccccc2)n1` (centres unmarked) [Example 4, N-(2-oxo-2,3,4,5-tetrahydro-1H-benzo[b]azepin-3-yl)-4-phenylpyrimidine-2-carboxamide], the IC50 came out at 2160 nM.

As for `Cc1cnc(C(=O)N[C@H]2COc3cc(C#N)ccc3N(C)C2=O)nc1-c1ccccc1` [Example 5, (S)-N-(8-cyano-5-methyl-4-oxo-2,3,4,5-tetrahydro-benzo[b][1,4]oxazepin-3-yl)-5-methyl-4-phenylpyrimidine-2-carboxamide], the half-maximal inhibitory concentration (IC50) was 15.1 nM.

Regarding `Cc1cnc(C(=O)N[C@H]2COc3cccnc3N(C)C2=O)nc1-c1ccccc1` [Example 6, (S)-5-methyl-N-(5-methyl-4-oxo-2,3,4,5-tetrahydropyrido[3,2-b][1,4]oxazepin-3-yl)-4-phenylpyrimidine-2-carboxamide], the IC50 came to 12.5 nM.

`Cc1cnc(C(=O)NC2CCc3cc(F)cc(F)c3NC2=O)nc1-c1ccccc1` (centres unmarked) [Example 7, N-(7,9-difluoro-2-oxo-2,3,4,5-tetrahydro-1H-benzo[b]azepin-3-yl)-5-methyl-4-phenylpyrimidine-2-carboxamide]: the half-inhibitory concentration (IC50) stood at 22.2 nM.

In the case of `O=C(NC1CCc2ccccc2NC1=O)c1nc(-c2ccccc2)c(Cl)cc1Cl` (centres unmarked) [Example 8, 3,5-dichloro-N-(2-oxo-2,3,4,5-tetrahydro-1H-benzo[b]azepin-3-yl)-6-phenylpicolinamide], the IC50 came out at 354 nM.

Regarding `Cc1cnc(C(=O)N[C@H]2CCc3ccccc3NC2=O)nc1-c1ccc(F)cc1` [Example 9, (S)-4-(4-fluorophenyl)-5-methyl-N-(2-oxo-2,3,4,5-tetrahydro-1H-benzo[b]azepin-3-yl)pyrimidine-2-carboxamide], the concentration for half-maximal inhibition (IC50) came out at 10.2 nM.

As to `Cc1cnc(C(=O)N[C@H]2CCc3ccccc3NC2=O)nc1-c1ccc(F)c(F)c1` [Example 10, (S)-4-(3,4-difluorophenyl)-5-methyl-N-(2-oxo-2,3,4,5-tetrahydro-1H-benzo[b]azepin-3-yl)pyrimidine-2-carboxamide], the IC50 amounted to 15.4 nM.

Consider `Cc1cnc(C(=O)N[C@H]2CCc3ccccc3NC2=O)nc1-c1cccc(F)c1` [Example 12, (S)-4-(3-fluorophenyl)-5-methyl-N-(2-oxo-2,3,4,5-tetrahydro-1H-benzo[b]azepin-3-yl)pyrimidine-2-carboxamide], for which the IC50 was determined as 14.6 nM.

For the compound `Cc1ccc(-c2nc(C(=O)N[C@H]3CCc4ccccc4NC3=O)ncc2C)cc1` [Example 13, (S)-5-methyl-N-(2-oxo-2,3,4,5-tetrahydro-1H-benzo[b]azepin-3-yl)-4-(p-tolyl)pyrimidine-2-carboxamide], the concentration for half-maximal inhibition (IC50) worked out at 27.6 nM.

Regarding `Cc1cnc(C(=O)N[C@H]2COc3cc(C#N)ccc3N(C)C2=O)nc1N1CCCCC1` [Example 14, (S)-N-(8-cyano-5-methyl-4-oxo-2,3,4,5-tetrahydro-benzo[b][1,4]oxazepin-3-yl)-5-methyl-4-(piperidin-1-yl)-pyrimidine-2-carboxamide], the IC50 worked out at 119 nM.

On to `Cc1cnc(C(=O)NC2CCn3nc(C(F)(F)F)cc3N(C)C2=O)nc1-c1ccccc1` (centres unmarked) [Example 15, 5-methyl-N-(4-methyl-5-oxo-2-(trifluoromethyl)-5,6,7,8-tetrahydro-4H-pyrazolo[1,5-a][1,3]diazepin-6-yl)-4-phenyl-pyrimidine-2-carboxamide], for which the 50% inhibitory concentration (IC50) came out at 498 nM.

For `Cc1cnc(C(=O)N[C@@H]2C(=O)N(C)c3ncccc3O[C@@H]2C)nc1-c1ccccc1` [Example 16, N-((2R,3S)-2,5-dimethyl-4-oxo-2,3,4,5-tetrahydropyrido[3,2-b][1,4]oxazepin-3-yl)-5-methyl-4-phenylpyrimidine-2-carboxamide], the IC50 was determined as 36.1 nM.

For the compound `Cc1cnc(C(=O)N[C@H]2COc3cc(C#N)ccc3N(C)C2=O)nc1-c1ccc(F)c(F)c1` [Example 17, (S)-N-(8-cyano-5-methyl-4-oxo-2,3,4,5-tetrahydro-benzo[b][1,4]oxazepin-3-yl)-4-(3,4-difluorophenyl)-5-methyl-pyrimidine-2-carboxamide], the concentration for half-maximal inhibition (IC50) is 40.8 nM.

`Cc1cnc(C(=O)Nc2cccc(Cl)c2F)nc1-c1ccccc1` [Example 18, N-(3-chloro-2-fluorophenyl)-5-methyl-4-phenylpyrimidine-2-carboxamide]: the IC50 worked out at 1890 nM.

For `Cc1cnc(C(=O)N[C@H]2COc3cc(C#N)ccc3N(C)C2=O)nc1N1CCC(F)(F)CC1` [Example 19, (S)-N-(8-cyano-5-methyl-4-oxo-2,3,4,5-tetrahydro-benzo[b][1,4]oxazepin-3-yl)-4-(4,4-difluoropiperidin-1-yl)-5-methylpyrimidine-2-carboxamide], the IC50 stood at 748 nM.

As for `Cc1cnc(C(=O)N[C@H]2COc3cc(C#N)ccc3N(C)C2=O)nc1N1CCCC1` [Example 20, (S)-N-(8-cyano-5-methyl-4-oxo-2,3,4,5-tetrahydro-benzo[b][1,4]oxazepin-3-yl)-5-methyl-4-(pyrrolidin-1-yl)-pyrimidine-2-carboxamide], the IC50 turned out to be 482 nM.

Take `Cc1cnc(C(=O)N[C@H]2COc3cccnc3N(C)C2=O)nc1-c1ccc(F)c(F)c1` [Example 21, (S)-4-(3,4-difluorophenyl)-5-methyl-N-(5-methyl-4-oxo-2,3,4,5-tetrahydropyrido[3,2-b][1,4]oxazepin-3-yl)pyrimidine-2-carboxamide]: the IC50 is 14.8 nM.

For `Cc1cnc(C(=O)N[C@H]2COc3ccc(Br)cc3N(C)C2=O)nc1-c1ccccc1` [Example 22, (S)-N-(7-bromo-5-methyl-4-oxo-2,3,4,5-tetrahydro-benzo[b][1,4]oxazepin-3-yl)-5-methyl-4-phenylpyrimidine-2-carboxamide], the half-maximal inhibitory concentration (IC50) stood at 12.1 nM.

Turning to `Cc1cnc(C(=O)N[C@H]2COc3cc(C#N)ccc3N(C)C2=O)nc1N1CCC(F)(F)C1` [Example 23, (S)-N-(8-cyano-5-methyl-4-oxo-2,3,4,5-tetrahydro-benzo[b][1,4]oxazepin-3-yl)-4-(3,3-difluoropyrrolidin-1-yl)-5-methylpyrimidine-2-carboxamide], the IC50 was 830 nM.

Consider `CN1C(=O)[C@@H](NC(=O)c2ncc(Cl)c(-c3ccccc3)n2)COc2cc(C#N)ccc21` [Example 24, (S)-5-chloro-N-(8-cyano-5-methyl-4-oxo-2,3,4,5-tetrahydro-benzo[b][1,4]oxazepin-3-yl)-4-phenylpyrimidine-2-carboxamide], for which the IC50 is 19.2 nM.

Regarding `Cc1ccc(C(=O)Nc2cccc(Cl)c2F)nc1Br` [Example 25, 6-bromo-N-(3-chloro-2-fluorophenyl)-5-methyl-picolinamide], the IC50 was no less than 10000 nM.

Consider `Cc1cnc(C(=O)N[C@H]2COc3ccc(N4CC5(CCOCC5)C4)cc3N(C)C2=O)nc1-c1ccccc1` [Example 26, (S)-5-methyl-N-(5-methyl-4-oxo-7-(7-oxa-2-azaspiro[3.5]nonan-2-yl)-2,3,4,5-tetrahydrobenzo[b]-[1,4]oxazepin-3-yl)-4-phenyl-pyrimidine-2-carboxamide], for which the IC50 amounted to 14.6 nM.

For `CN1C(=O)[C@@H](NC(=O)c2ncc(Cl)c(-c3ccccc3)n2)COc2cccnc21` [Example 27, (S)-5-chloro-N-(5-methyl-4-oxo-2,3,4,5-tetrahydropyrido[3,2-b][1,4]oxazepin-3-yl)-4-phenylpyrimidine-2-carboxamide], the IC50 is 26.7 nM.

Take `Cc1cnc(C(=O)N[C@H]2COc3cc(Br)cnc3N(C)C2=O)nc1-c1ccccc1` [Example 29, (S)-N-(8-bromo-5-methyl-4-oxo-2,3,4,5-tetrahydropyrido[3,2-b][1,4]oxazepin-3-yl)-5-methyl-4-phenylpyrimidine-2-carboxamide]: the half-inhibitory concentration (IC50) is 11.7 nM.
